Source: ChEMBL document CHEMBL1142478, “Small molecule modulators of toll-like receptors” (J Med Chem, 2008)
Values belong to the compound of their own block, whether it stands above or below them. Activity calls are given as the source filed them. No cut-off for these calls is given here. Where a SMILES comes first, the peptide text is derived from it. The star is where a group is joined. X1 = CCCCCCCCCCCCCC(=O)N[C@@H](C*)C(=O)NCCCCCCCC; Myristoyl = CCCCCCCCCCCCCC(=O)*

Columns and labels:
Toll-like receptor 2 [1] = biological target: T1, Toll-like receptor 2 (Homo sapiens, UniProt O60603); test: Inhibition of TLR2-mediated IL8 secretion in human THP1 cells; format: cell-based, THP-1
T1 sequence (O60603 whole entry): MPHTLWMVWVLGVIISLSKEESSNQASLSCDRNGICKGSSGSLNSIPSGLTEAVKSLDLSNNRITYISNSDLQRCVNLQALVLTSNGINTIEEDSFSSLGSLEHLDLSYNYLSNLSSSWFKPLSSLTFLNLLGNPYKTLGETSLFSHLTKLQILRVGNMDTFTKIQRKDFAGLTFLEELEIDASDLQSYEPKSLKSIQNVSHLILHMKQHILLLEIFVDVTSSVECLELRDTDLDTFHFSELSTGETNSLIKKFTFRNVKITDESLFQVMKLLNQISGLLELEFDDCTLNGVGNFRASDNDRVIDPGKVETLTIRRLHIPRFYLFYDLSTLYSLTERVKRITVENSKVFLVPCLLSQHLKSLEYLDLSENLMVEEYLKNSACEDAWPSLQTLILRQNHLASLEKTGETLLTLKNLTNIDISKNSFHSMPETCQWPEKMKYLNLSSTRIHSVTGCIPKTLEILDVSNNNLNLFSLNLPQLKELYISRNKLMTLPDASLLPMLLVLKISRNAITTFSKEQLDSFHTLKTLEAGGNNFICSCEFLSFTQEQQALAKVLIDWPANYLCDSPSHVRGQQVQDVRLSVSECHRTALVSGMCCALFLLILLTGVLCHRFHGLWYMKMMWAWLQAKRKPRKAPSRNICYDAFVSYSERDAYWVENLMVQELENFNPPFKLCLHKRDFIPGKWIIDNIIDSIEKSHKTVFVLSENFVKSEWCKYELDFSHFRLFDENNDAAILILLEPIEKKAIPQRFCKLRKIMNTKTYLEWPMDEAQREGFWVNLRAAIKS

[2] = biological target: Toll-like receptor 4 (Mus musculus) (UniProt Q9QUK6); test: Inhibition of mouse TLR4-mediated cytokine production in mouse macrophages
Toll-like receptor 7 [3] = biological target: T2, Toll-like receptor 7 (Homo sapiens, UniProt Q9NYK1); test: (§1) Agonist activity at human TLR7 by luciferase reporter gene assay; format: functional
T2 sequence (Q9NYK1 whole entry): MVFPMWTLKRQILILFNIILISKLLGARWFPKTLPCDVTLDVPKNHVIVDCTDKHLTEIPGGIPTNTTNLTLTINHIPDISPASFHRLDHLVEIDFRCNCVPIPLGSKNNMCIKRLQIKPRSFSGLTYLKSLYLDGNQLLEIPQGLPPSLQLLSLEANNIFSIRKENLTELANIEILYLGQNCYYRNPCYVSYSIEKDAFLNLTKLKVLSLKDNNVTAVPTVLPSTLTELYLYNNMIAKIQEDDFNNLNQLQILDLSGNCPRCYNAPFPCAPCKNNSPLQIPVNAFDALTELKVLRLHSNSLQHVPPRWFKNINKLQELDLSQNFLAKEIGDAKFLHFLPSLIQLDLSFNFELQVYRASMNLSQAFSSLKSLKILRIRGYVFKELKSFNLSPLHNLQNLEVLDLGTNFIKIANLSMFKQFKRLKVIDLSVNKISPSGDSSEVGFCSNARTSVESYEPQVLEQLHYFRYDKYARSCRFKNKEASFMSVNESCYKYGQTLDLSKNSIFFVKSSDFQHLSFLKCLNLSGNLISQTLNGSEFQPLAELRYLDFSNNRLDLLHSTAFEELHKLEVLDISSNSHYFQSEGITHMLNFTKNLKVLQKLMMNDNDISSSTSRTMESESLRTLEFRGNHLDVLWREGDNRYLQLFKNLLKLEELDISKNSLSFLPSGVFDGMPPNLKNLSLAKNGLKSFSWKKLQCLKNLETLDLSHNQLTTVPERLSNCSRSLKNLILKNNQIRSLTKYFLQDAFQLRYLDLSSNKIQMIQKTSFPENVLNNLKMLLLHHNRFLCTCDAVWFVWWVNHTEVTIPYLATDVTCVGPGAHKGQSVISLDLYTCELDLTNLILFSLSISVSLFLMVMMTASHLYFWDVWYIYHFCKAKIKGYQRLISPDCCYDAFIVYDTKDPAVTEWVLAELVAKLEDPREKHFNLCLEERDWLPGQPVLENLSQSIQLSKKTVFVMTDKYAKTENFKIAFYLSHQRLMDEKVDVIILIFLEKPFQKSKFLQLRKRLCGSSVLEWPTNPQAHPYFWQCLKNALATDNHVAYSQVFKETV

Toll-like receptor 7 [4] = biological target: T2, Toll-like receptor 7; test: Agonist activity at TLR7 in human PBMC cells assessed as stimulation of interferon release; format: functional, cell-based
[5] = biological target: T3, Toll-like receptor 7 (Homo sapiens) (UniProt Q9NYK1); test: as §1; format: functional
T3 sequence (whole entry): T2 sequence (Q9NYK1 whole entry)

Toll-like receptor 8 [6] = biological target: T4, Toll-like receptor 8 (Homo sapiens, UniProt Q9NR97); test: Agonist activity at human TLR8 expressed in HEK cells by NF-kappaB luciferase reporter gene assay; format: functional, cell-based, HEK293
T4 sequence (Q9NR97 whole entry): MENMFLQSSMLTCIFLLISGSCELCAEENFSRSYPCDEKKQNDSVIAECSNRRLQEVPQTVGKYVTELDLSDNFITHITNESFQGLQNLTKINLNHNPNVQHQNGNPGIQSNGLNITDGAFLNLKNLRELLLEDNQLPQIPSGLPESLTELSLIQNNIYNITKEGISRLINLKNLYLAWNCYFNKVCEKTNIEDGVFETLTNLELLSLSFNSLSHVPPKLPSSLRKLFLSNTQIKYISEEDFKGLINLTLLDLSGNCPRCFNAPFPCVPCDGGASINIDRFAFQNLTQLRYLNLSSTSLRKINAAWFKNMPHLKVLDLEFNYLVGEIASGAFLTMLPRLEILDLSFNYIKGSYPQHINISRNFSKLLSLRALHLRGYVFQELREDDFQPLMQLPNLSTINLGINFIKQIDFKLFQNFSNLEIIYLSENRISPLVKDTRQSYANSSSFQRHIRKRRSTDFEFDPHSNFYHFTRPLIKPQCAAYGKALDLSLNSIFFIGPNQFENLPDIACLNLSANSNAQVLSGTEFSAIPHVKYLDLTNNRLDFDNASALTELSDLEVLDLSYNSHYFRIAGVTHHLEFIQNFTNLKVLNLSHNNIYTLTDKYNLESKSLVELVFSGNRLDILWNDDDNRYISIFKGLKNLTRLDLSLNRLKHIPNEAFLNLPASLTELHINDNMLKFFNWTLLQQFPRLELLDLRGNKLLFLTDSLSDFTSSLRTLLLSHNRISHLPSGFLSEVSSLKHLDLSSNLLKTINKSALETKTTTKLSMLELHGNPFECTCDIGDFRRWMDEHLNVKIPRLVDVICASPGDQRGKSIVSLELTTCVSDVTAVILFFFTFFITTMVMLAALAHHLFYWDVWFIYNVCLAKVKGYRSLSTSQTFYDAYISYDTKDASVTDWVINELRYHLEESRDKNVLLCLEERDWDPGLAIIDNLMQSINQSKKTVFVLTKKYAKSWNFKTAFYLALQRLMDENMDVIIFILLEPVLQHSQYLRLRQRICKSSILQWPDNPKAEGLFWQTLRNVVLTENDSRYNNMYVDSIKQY

Toll-like receptor 8 [7] = biological target: T4, Toll-like receptor 8; test: Agonist activity at TLR8 in human PBMC cells assessed as TNFalpha level by ELISA; format: functional, cell-based
Toll-like receptor 9 = biological target: T5, Toll-like receptor 9 (Homo sapiens, UniProt Q9NR96); test: Antagonist activity at human TLR9 expressed in HEK293 cells assessed as blockade of CpG oligonucleotide-induced immune response by NF-kappaB luciferase reporter gene assay; format: functional, cell-based
T5 sequence (Q9NR96 whole entry): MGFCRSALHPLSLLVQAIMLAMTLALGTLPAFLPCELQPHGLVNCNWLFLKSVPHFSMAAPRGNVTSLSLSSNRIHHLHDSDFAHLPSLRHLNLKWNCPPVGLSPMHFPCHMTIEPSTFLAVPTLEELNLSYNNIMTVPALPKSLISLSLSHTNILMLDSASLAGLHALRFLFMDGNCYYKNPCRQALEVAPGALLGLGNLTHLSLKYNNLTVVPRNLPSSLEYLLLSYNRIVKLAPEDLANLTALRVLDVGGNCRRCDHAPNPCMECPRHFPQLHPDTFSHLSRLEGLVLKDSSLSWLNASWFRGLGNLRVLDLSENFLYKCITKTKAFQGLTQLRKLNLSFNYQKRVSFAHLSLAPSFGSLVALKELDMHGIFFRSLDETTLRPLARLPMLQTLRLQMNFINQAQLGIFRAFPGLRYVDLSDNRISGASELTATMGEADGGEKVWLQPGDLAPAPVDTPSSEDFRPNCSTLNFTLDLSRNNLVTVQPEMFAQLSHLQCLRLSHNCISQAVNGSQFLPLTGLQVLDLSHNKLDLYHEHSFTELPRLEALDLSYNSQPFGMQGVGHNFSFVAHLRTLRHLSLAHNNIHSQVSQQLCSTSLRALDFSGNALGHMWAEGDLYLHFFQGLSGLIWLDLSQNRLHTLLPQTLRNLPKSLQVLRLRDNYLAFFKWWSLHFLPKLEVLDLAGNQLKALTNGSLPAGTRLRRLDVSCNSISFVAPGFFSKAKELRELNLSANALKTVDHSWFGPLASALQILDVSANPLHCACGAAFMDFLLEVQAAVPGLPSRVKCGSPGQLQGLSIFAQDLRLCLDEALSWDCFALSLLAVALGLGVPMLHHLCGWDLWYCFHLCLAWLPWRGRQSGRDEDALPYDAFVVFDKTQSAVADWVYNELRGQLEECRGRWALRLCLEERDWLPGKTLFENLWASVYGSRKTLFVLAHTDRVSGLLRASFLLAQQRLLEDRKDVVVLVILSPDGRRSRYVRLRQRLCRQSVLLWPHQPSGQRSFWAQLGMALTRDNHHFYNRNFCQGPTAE

Toll-like receptor 2 [8] = biological target: T1, Toll-like receptor 2; test: Antagonist activity at human TLR2 expressed in HE293 cells co-transfected with pELAM by luciferase reporter gene assay; format: functional, cell-based, HEK293
Homo sapiens = organism: Homo sapiens; test: Selectivity for human TLR2 over human TLR4
Toll-like receptor 4 [9] = biological target: T6, Toll-like receptor 4 (Homo sapiens, UniProt O00206); test: Antagonist activity at TLR4 in human HL60 cells assessed as inhibition of LPS-induced cytokine production; format: functional, cell-based, HL-60
T6 sequence (O00206 whole entry): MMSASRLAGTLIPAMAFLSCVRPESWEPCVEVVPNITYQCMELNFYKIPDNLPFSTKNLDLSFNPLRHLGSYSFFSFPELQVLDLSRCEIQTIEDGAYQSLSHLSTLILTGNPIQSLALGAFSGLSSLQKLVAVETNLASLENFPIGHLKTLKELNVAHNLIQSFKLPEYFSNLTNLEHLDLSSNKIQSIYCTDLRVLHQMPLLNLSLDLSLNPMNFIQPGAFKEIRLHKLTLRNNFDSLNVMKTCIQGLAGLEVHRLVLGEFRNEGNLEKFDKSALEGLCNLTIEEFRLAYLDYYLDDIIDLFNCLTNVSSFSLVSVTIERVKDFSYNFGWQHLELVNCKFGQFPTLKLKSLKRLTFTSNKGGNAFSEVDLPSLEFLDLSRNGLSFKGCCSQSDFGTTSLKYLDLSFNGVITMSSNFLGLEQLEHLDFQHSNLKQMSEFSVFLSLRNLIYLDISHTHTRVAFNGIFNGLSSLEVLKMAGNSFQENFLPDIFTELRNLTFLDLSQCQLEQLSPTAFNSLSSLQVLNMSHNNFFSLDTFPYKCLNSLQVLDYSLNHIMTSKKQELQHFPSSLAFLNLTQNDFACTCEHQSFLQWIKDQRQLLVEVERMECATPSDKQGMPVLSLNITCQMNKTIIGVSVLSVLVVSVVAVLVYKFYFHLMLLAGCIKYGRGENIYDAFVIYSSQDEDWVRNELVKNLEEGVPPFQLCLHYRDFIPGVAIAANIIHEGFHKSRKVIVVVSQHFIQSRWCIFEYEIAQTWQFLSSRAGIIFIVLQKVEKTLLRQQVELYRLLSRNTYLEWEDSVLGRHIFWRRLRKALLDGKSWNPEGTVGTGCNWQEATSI

Toll-like receptor 4 [10] = biological target: T6, Toll-like receptor 4; test: Antagonist activity at human TLR4 assessed as inhibition of LPS-induced cytokine production in HL-60 cells
Toll-like receptor 4 [11] = biological target: T6, Toll-like receptor 4; test: Antagonist activity at human TLR4 expressed in HE293 cells by ELAM1-luciferase reporter gene assay; format: functional, cell-based, HEK293
Toll-like receptor 4 [12] = biological target: T6, Toll-like receptor 4; test: Antagonist activity at TLR4 in human PBMC cells assessed as suppression of LPS-induced cytokine upregulation; format: functional, cell-based

Compound: CCOC(=O)C1=CCCCC1S(=O)(=O)NC1=NCCS1 (centres undefined)
IC50 [2]: > 10000 nM

Compound: COCCOc1nc(N)c2nc(S)n(Cc3cccc(CP(C)(=O)O)c3)c2n1
EC50 (Toll-like receptor 7 [3]): 10 nM
EC50 (Toll-like receptor 7 [4]): 10 nM

Compound: CCN(CC)c1nc2c(N)nc(OCCOC)nc2n1Cc1ccccc1
Activity [5]: inactive

Compound: CCOC(=O)C1=CCCC1S(=O)(=O)Nc1ccc(F)cc1Cl (centres undefined)
IC50 [2]: 110 nM

Compound: COCCOc1nc(N)c2nc(NN)n(Cc3ccccc3)c2n1
EC50 (Toll-like receptor 7 [3]): 790 nM

Compound: COCCOc1nc(N)c2nc(N)n(Cc3ccccc3)c2n1
EC50 (Toll-like receptor 7 [3]): > 10000 nM

Compound: CCOC(=O)C1=CCCCCC1S(=O)(=O)Nc1ccc(F)cc1Cl (centres undefined)
IC50 [2]: 240 nM

Compound: Cc1ccc(Cn2c(=O)[nH]c3c(N)nc(-c4nccs4)cc32)cn1
EC50 (Toll-like receptor 7 [3]): 100 nM

Compound: CCOC(=O)N1CC(N)=Nc2ccccc2C1
EC50 (Toll-like receptor 8 [6]): < 100000 nM
EC50 (Toll-like receptor 8 [7]): < 100000 nM

Compound: CCOC(=O)C1=CCCCC1S(=O)(=O)Nc1ccc(Cl)cc1F (centres undefined)
IC50 [2]: 160 nM

Compound: CN(C)CCNc1nc(-c2ccc(N3CCN(C)CC3)cc2)nc2ccccc12
IC50 (Toll-like receptor 9): 3 nM

Compound: CCN(CC)C(=O)N1CC(N)=Nc2ccccc2C1
EC50 (Toll-like receptor 8 [6]): < 100000 nM
EC50 (Toll-like receptor 8 [7]): < 100000 nM

Compound: CCOC(=O)C1=CCCCC1S(=O)(=O)Nc1ccc(F)cc1Cl (centres undefined)
IC50 [2]: 3.2 nM

Compound: Nc1nc(NCc2ccccc2)nc2c1[nH]c(=O)n2Cc1cccc(CP(=O)(O)O)c1
EC50 (Toll-like receptor 7 [3]): 10 nM
EC50 (Toll-like receptor 7 [4]): 10 nM

Compound: CCOC(=O)c1ccccc1S(=O)(=O)Nc1ccc(F)cc1Cl
IC50 [2]: > 10000 nM

Compound: CCNc1nc2c(N)nc(OCCOC)nc2n1Cc1ccccc1
EC50 (Toll-like receptor 7 [3]): 4400 nM

Compound: Nc1ccccc1Oc1ccc2c(N)nsc2c1
IC50 (Toll-like receptor 4 [11]): 7000 nM
IC50 (Toll-like receptor 4 [12]): 3000 nM

Now from value to compound:

IC50 (Toll-like receptor 2 [1]): 5000 nM
Compound: CCCCCCCCCCCCCC(=O)N[C@@H](CSC[C@H](NC(=O)CCCCCCCCCCCCC)C(=O)N[C@@H](CO)C(=O)N[C@@H](CCCCN)C(=O)N[C@@H](CCCCN)C(=O)N[C@@H](CCCCN)C(=O)N[C@@H](CCCCN)C(N)=O)C(=O)NCCCCCCCC (Myristoyl-C(X1)SKKKK-NH2)

EC50 (Toll-like receptor 7 [3]): 3200 nM
Compound: COCCOc1nc(N)c2nc(NCCCO)n(Cc3ccccc3)c2n1

IC50 (Toll-like receptor 2 [8]): 230 nM
Compound: CCCCCCCCCCCCCCCC(=O)N[C@@H](COP(=O)(O)OCCNC(=O)[C@@H](NC(=O)Cc1c[nH]c2ccc(-c3ccccc3)cc12)[C@@H](C)CC)C(=O)NCCCOC(=O)CCCCCCCCCCC

EC50 (Toll-like receptor 7 [3]): < 20 nM
Compound: COCCOc1nc(N)c2[nH]c(=O)n(CCCN(Cc3ccc(CC(=O)OC)cc3)C(=O)CN3CCN(C)CC3)c2n1

IC50 (Toll-like receptor 2 [8]): 460 nM
Selectivity ratio (Homo sapiens): > 25
Compound: CCCCCCCCCCCCCCCCCCCC(=O)N[C@@H](COP(=O)(O)OCCNC(=O)[C@@H](NC(=O)Cc1c[nH]c2ccccc12)[C@@H](C)CC)C(=O)NCCC(O)CCCCCCCCCCCCC (some centres undefined)

EC50 (Toll-like receptor 7 [3]): < 20 nM
Compound: COCCOc1nc(N)c2[nH]c(=O)n(CCCN(Cc3ccc(CC(=O)OC)cc3)C(=O)CCC(=O)OC(C)(C)C)c2n1

IC50 (Toll-like receptor 4 [9]): 1.5 nM
IC50 (Toll-like receptor 4 [10]): 1.5 nM
Compound: CCCCCC/C=C\CCCCCCCCCC(=O)N[C@H]1[C@H](OC[C@H]2O[C@H](OP(=O)(O)O)[C@H](NC(=O)CC(=O)CCCCCCCCCCC)[C@@H](OCCCCCCCCCC)[C@@H]2O)O[C@H](COC)[C@@H](OP(=O)(O)O)[C@@H]1OCC[C@@H](CCCCCCC)OC [ERITORAN TETRASODIUM]

IC50 (Toll-like receptor 2 [8]): 900 nM
Compound: CCCCCCCCCCCCCC(=O)N[C@@H](COP(=O)(O)OCCNC(=O)[C@@H](NC(=O)Cc1ccc(O)cc1)[C@@H](C)C(=O)O)C(=O)NCCC(CCCCCCC)OC(=O)CCCCCCCCCCC (some centres undefined)

IC50 (Toll-like receptor 2 [8]): 240 nM
Selectivity ratio (Homo sapiens): > 25
Compound: CCCCCCCCCCCCCCCCCCCC(=O)N[C@@H](COP(=O)(O)OCCNC(=O)[C@@H](NC(=O)Cc1c[nH]c2ccc(OCc3ccccc3)cc12)[C@@H](C)CC)C(=O)NCCC(O)CCCCCCCCCCCCC (some centres undefined)
